Assay results reported in patent US20120053208A1 (THE OHIO STATE UNIVERSITY RESEARCH FOUNDATION, priority 2009, published 2012).

Columns and labels:
[1] = system: STAT3 dependent luciferase activity; experiment: STAT3-dependent transcriptional luciferase activity (pLucTKS3); format: cell-based, human; details: MDA-MB-231 cells stably transfected with pLucTKS3; 1-10 μmol/L, 24 hours
Protocol: Cells were incubated with the compounds for 24 h and were then harvested for luciferase activity analysis.
Expression of luciferase is thus contingent upon the phosphorylation and activation of STAT3.

[2] = system: ERK1/2, PKC-δ, mTOR, p70S6K, and AKT phosphorylation; experiment: Phosphorylation of other kinases by immunoblot in breast cancer cells; format: cell-based, human; details: MDA-MB-231 and MDA-MB-468 cells, 24 h
From the text: (§1) The cell extract were processed for immunoblotting using specific antibodies. GAPDH was used as loading control.
(§2) The cell extracts were processed for immunoblotting using specific antibodies. GAPDH was used as loading control.

[3] = system: cells with persistent expression of p-STAT3; experiment: Apoptosis (cleaved caspase-3 immunoblot) in cancer cells; format: cell-based, human; details: 24 h
From the text: as §1, §2
(§3) GAPDH was used as loading control.
as §2, §2

[4] = system: normal human pancreatic duct epithelial cells, normal human lung fibroblasts, normal human mammary epithelial cells; experiment: Apoptosis (cleaved caspase-3 immunoblot) in normal human cells; details: HPDE, HMEC and normal human lung fibroblasts; 24 h
From the text: as §2

[5] = system: eight cancer cell lines with elevated levels of STAT3 phosphorylation; experiment: Anti-proliferative activity in a panel of eight cancer cell lines; format: cell-based, human
STAT3 phosphorylation = STAT3 phosphorylation by immunoblot in cancer cells with persistently activated STAT3; format: cell-based, human; details: 24 h
From the text: as §1, §2, §3, §2

[6] = system: downstream targets of STAT3; experiment: Expression of downstream targets of STAT3 by immunoblot; format: cell-based, human; details: both breast cancer cell lines (MDA-MB-231, MDA-MB-468)
From the text: as §1, §2, §3, §2

[7] = system: STAT3 DNA binding activity; experiment: STAT3 DNA binding activity (STAT3 Transcription Factor Kit); format: cell-based, human; details: MDA-MB-231 cells; 10 μM, 24 h
Protocol: Cells were treated with the compounds or DMSO (control) for 24 h. The cell extract were analyzed for STAT3 binding activity using STAT3 Transcription Factor Kit.
(§4) Cells were treated with FLLL31 (10 μM) or DSMO (control) for 24 h. The cell extracts were analyzed for STAT3 DNA binding activity using STAT3 and STAT1 Transcription Factor Kits.

[8] = system: STAT1 DNA binding activity; experiment: STAT1 DNA binding activity (STAT1 Transcription Factor Kit); format: cell-based, human; details: MDA-MB-231 cells; 10 μM, 24 h
Protocol: as §4

JAK2 kinase = JAK2 kinase (Homo sapiens, UniProt O60674); experiment: JAK2 kinase assay (HTScan JAK2 kinase assay kit); details: at 10 μM
Sequence of JAK2 kinase (O60674 whole entry): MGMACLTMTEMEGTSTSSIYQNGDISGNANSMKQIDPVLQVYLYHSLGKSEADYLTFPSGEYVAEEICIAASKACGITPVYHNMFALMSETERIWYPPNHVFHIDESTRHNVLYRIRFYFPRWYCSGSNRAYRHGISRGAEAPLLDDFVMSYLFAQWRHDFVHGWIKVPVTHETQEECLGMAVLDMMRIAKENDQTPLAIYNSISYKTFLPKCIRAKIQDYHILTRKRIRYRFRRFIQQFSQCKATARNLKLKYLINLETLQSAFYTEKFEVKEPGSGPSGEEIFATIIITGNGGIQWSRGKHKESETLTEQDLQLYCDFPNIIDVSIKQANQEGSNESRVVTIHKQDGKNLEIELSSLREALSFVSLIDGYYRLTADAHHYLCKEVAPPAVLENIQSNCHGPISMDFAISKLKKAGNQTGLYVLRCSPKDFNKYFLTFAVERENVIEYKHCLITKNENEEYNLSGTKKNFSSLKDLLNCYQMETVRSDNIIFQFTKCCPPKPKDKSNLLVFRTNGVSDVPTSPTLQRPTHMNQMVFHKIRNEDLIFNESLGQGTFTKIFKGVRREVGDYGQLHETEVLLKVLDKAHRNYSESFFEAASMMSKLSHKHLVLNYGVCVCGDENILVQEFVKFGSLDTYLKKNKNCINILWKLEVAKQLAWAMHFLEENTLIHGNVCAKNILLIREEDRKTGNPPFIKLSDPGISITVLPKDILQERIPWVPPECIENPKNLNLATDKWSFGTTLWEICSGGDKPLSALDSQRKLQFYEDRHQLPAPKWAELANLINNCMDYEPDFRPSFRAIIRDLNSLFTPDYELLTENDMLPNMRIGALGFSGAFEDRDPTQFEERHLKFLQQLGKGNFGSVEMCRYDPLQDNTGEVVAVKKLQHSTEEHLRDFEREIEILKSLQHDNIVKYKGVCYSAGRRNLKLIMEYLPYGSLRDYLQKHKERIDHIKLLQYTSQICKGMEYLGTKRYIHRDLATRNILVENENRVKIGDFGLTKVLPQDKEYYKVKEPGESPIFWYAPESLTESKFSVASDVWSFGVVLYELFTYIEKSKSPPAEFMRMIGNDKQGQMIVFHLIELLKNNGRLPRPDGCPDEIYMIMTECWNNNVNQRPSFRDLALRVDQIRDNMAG
Protocol: JAK2 kinase assay was performed using a HTScan JAK2 kinase assay kit.

SMILES	inhibition of STAT3 dependent luciferase activity [1]	effects on ERK1/2, PKC-δ, mTOR, p70S6K, and AKT phosphorylation [2]	induction of apoptosis (cleavages of caspase-3) ([3]; MDA-MB-231 and MDA-MB-468 breast cancer cells)	induction of apoptosis (cleaved caspase-3) ([3]; PANC-1, BXPC-3 and SK-BR-3 cells, 5 or 10 μM)	induction of apoptosis in normal human cells [4]	IC50, anti-proliferative activity ([5]; SUM-159, ZR-75-1, BXPC-3, HPAC, PANC-1, SW1990, U373, U266)	anti-proliferative potency relative to WP1066, Stattic, S31-201, SD1029 and AG490 ([5]; panel of eight cancer cell lines)	inhibition of STAT3 phosphorylation (STAT3 phosphorylation; MDA-MB-231 breast cancer cells, 2.5 and 5 μM)	inhibition of STAT3 phosphorylation (STAT3 phosphorylation; MDA-MB-468 breast cancer cells, 2.5, 5 and 10 μM)	down-regulation of cyclin D1 [6]	inhibition of STAT3 DNA binding activity [7]	potency of STAT3 DNA binding inhibition relative to curcumin [7]	selectivity: STAT3 versus STAT1 DNA binding activity [8]	induction of apoptosis ([3]; U373 cells, 5 μM)	inhibition of STAT3 phosphorylation (STAT3 phosphorylation; U373 human glioblastoma cells, 5 μM)	JAK2 inhibition (JAK2 kinase)
COc1ccc(/C=C/C(=O)C(C)(C)C(=O)/C=C/c2ccc(OC)c(OC)c2)cc1OC [FLLL31]	dose-dependent inhibition	little effects	induction of apoptosis	induce apoptosis	no apoptosis induction	submicromolar	more potent than the other inhibitors	inhibited STAT3 phosphorylation	inhibited STAT3 phosphorylation	down-regulation of cyclin D1	statistically significant inhibition	significantly more potent than curcumin	inhibit STAT3 but not STAT1 DNA binding activity	–	–	–
C[C@H](NC(=O)/C(C#N)=C/c1cccc(Br)n1)c1ccccc1 [WP1066, reference compound]	–	–	–	–	–	–	–	–	–	–	–	–	–	induce apoptosis	inhibit STAT3 phosphorylation	–
COc1cc(C=CC(=O)CC(=O)C=Cc2ccc(O)c(OC)c2)ccc1O [curcumin, 1,7-bis(4-hydroxy-3-methoxyphenyl)-1,6-heptadien-3,5-dione, reference compound]	–	–	–	–	–	–	–	–	–	–	inhibit STAT3 DNA binding activity	–	–	–	–	did not show any JAK2 inhibition
